Measurements published in patent US20140243292A1, “SUBSITUTED 2-(CHROMAN-6-YLOXYL)-THIAZOLES AND THEIR USE AS PHARMACEUTICALS” (Sanofi, priority 2011, published 2014).
Where a name gives a salt, the structure may show the parent alone.

What follows are compounds tested against T1, human NCX1 (Homo sapiens, UniProt P32418) (assay: NCX1 inhibition, reverse mode (Ca2+ influx into cells), FLIPR Fluo-4 assay). Conditions: inhibition of NCX1 in reverse mode (Ca2+ influx into cells); read-out: NCX1rv IC50.
T1 construct: expressed in transfected cells
Assay type: cell-based
From the text: The sodium/calcium exchanger NCX1 can transport calcium ions and sodium ions through the cell membrane. The transport is an exchange of Ca^2+ and Na^+ in two directions depending on membrane potential and ion gradients. At the first direction, named “forward mode” or “calcium export mode”, Ca^2+ is transported out of the cell and Na^+ is transported into the cell. At the other direction, named “reverse mode” or “calcium import mode”, the transport directions are vice versa. The effect of the compounds of the invention on NCX1 was determined in CHO cells stably expressing human NCX1 (gene symbol SLC8A1; cf. WO 2009/115238). The assay is based on the monitoring of intracellular Ca^2+ concentrations using a calcium-sensitive fluorescence dye which is detected by means of a FLIPR device (Fluorimetric Imaging Plate Reader, Molecular Devices).
The assay is based on the monitoring of intracellular Ca^2+ concentrations using the calcium-sensitive dye Fluo-4. CHO cells expressing NCX1 were loaded with the dye by means of the acetoxymethyl ester Fluo-4 AM (Invitrogen, F14202), which is cleaved intracellularly by esterase activity to yield the charged species of free Fluo-4. After an preincubation period with the test compound, Gramicidine (Sigma, G5002) was added. Gramicidine is an ionophor for Na^+ ions mediating an increase of intracellular Na^+ ions. Consequently, intracellular Na^+ ions are exchanged against extracellular Ca^2+ ions (Ca^2+ influx, reverse mode). The intracellular elevation of Ca^2+ ions was detected by measuring the fluorescence of Fluo-4 at a wavelength of 520 nm by a FLIPR device.
Briefly, for the reverse mode transport assay 18000 cells per well were seeded into a 96 well microplate (Corning COSTAR 3904) and incubated overnight in culture medium (1× Nut Mix F12 (Ham) (Gibco, 21765-029); 10% (v/v) fetal calf serum (PAA Gold, A15-649); 450 μg/ml Geneticin (Gibco, 10131-027)). A total volume of 100 μl medium per well was used. For the preparation of the FLIPR assay, the culture medium was removed from the plates and 100 μl of dye solution (2 μM Fluo-4 AM; 0.02% (v/v) Pluronic F-127 (20%, Invitrogen, P3000MP); 0.1% (v/v) bovine albumin solution (30% (v/v), Sigma, A9205) in assay buffer (133.8 mM NaCl (Sigma, S5886); 4.7 mM KCl (Sigma, P3911); 1.25 mM MgCl2 (Merck, 1.05833.0250); 3.5 mM CaCl2 (Merck, 1.02083.0250); 5 mM glucose (Sigma, G7021); 10 mM Hepes (Sigma, H4034); 0.01% (v/v) Pluronic F-127 (5%, Sigma, P2443); 2.5 mM Probenecid (Maybridge, SB00915EB); pH 7.4)) were added into each well. The plates were incubated in the dark at room temperature for 80 min. After the incubation period, the dye solution was removed and the wells were washed with 100 μl of assay buffer. Then 80 μl of a solution of the test compound in assay buffer in different concentrations were added into the wells. The plates were incubated at 16° C. for 45 min. Meanwhile a 60 μM solution of Gramicidine in assay buffer (4° C.) was prepared and stored in the wells of a 96 well microplate (96 well microplate, polypropylene, U-shape (Greiner Bio-One, 650201)) at 4° C. until measurement was started. The fluorescence monitoring was performed at 240 measuring points with measurement intervals of 2 sec. After the fifth measuring point, 40 μl of the Gramicidine solution were added to each well of the assay plates to give a final Gramicidine concentration of 20 μM. For the determination of the IC50 values the minimal fluorescence value was subtracted from the maximal fluorescence value for all measuring points. The calculation of the IC50 values via the percentage inhibitions of Ca^2+ influx into cells (reverse mode) effected by the test compound was performed in Biost@t Speed 2.0.

Compound	IC50
c1ccc(C2CCc3cc(Oc4ncc(CN5C6CCC5CC6)s4)ccc3O2)cc1 (centres unmarked) [compound 121]	600 nM
CN1CCN(Cc2cnc(Oc3ccc4c(c3)CCC(c3ccccc3)O4)s2)CC1 (centres unmarked) [compound 122]	800 nM
CN1CCOc2cc(S(=O)(=O)NCc3cnc(Oc4ccc5c(c4)CCC(c4ccccc4)O5)s3)ccc21 (centres unmarked) [compound 123]	1100 nM
Cc1nc2ccc(S(=O)(=O)NCc3cnc(Oc4ccc5c(c4)CCC(c4ccccc4)O5)s3)cc2s1 (centres unmarked) [compound 124]	900 nM
Cc1nc(C)c(S(=O)(=O)NCc2cnc(Oc3ccc4c(c3)CCC(c3ccccc3)O4)s2)s1 (centres unmarked) [compound 126]	600 nM
Cc1ncc(S(=O)(=O)NCc2cnc(Oc3ccc4c(c3)CCC(c3ccccc3)O4)s2)n1C (centres unmarked) [compound 127]	1100 nM
Cn1cc(S(=O)(=O)NCc2cnc(Oc3ccc4c(c3)CCC(c3ccccc3)O4)s2)cn1 (centres unmarked) [compound 129]	900 nM
Cc1c(S(=O)(=O)NCc2cnc(Oc3ccc4c(c3)CCC(c3ccccc3)O4)s2)cnn1C(C)C (centres unmarked) [compound 130]	700 nM
Cc1n[nH]c(C)c1S(=O)(=O)NCc1cnc(Oc2ccc3c(c2)CCC(c2ccccc2)O3)s1 (centres unmarked) [compound 131]	23800 nM
Cc1cnc(CNCc2cnc(Oc3ccc4c(c3)CCC(c3ccccc3)O4)s2)cn1 (centres unmarked) [compound 135]	500 nM
Cc1ccn(CCNCc2cnc(Oc3ccc4c(c3)CCC(c3ccccc3)O4)s2)n1 (centres unmarked) [compound 136]	500 nM
CCn1cc(CNCc2cnc(Oc3ccc4c(c3)CCC(c3ccccc3)O4)s2)c(C)n1 (centres unmarked) [compound 139]	500 nM
Cc1cc(C)nc(CNCc2cnc(Oc3ccc4c(c3)CCC(c3ccccc3)O4)s2)n1 (centres unmarked) [compound 143]	500 nM
C1=C(CNCc2cnc(Oc3ccc4c(c3)CCC(c3ccccc3)O4)s2)N2CCCN=C2S1 (centres unmarked) [compound 144]	800 nM
c1ccc(C2CCc3cc(Oc4ncc(CNCc5cccnc5N5CCOCC5)s4)ccc3O2)cc1 (centres unmarked) [compound 145]	900 nM
Cc1cc(C)n(CCNCc2cnc(Oc3ccc4c(c3)CCC(c3ccccc3)O4)s2)n1 (centres unmarked) [compound 150]	800 nM
Cc1noc(C)c1CCCNCc1cnc(Oc2ccc3c(c2)CCC(c2ccccc2)O3)s1 (centres unmarked) [compound 153]	500 nM
c1ccc(C2CCc3cc(Oc4ncc(CNCc5ccnc(N6CCOCC6)c5)s4)ccc3O2)cc1 (centres unmarked) [compound 162]	400 nM
Cc1nc(S(=O)(=O)NCc2cnc(Oc3ccc4c(c3)CCC(c3ccccc3)O4)s2)cn1C (centres unmarked) [compound 163]	400 nM
CN1CC(=O)N(CC(=O)NCc2cnc(Oc3ccc4c(c3)CCC(c3ccccc3)O4)s2)C1=O (centres unmarked) [compound 164]	700 nM
O=C(CN1CCCC1=O)NCc1cnc(Oc2ccc3c(c2)CCC(c2ccccc2)O3)s1 (centres unmarked) [compound 165]	500 nM
Cc1nc(Oc2ccc3c(c2)CCC(c2ccccc2)O3)sc1C(=O)NCc1ccnc(Cl)c1 (centres unmarked) [compound 167, hydrochloride]	500 nM
O=C(NCc1ccno1)c1cnc(Oc2ccc3c(c2)CC[C@H](c2ccccc2)O3)s1 [compound 172]	400 nM
Cc1noc(C)c1CCNC(=O)c1cnc(Oc2ccc3c(c2)CCC(c2cccc(O)c2)O3)s1 (centres unmarked) [compound 173]	2300 nM
O=C(NCc1ccncc1)c1cnc(Oc2ccc3c(c2)CCC(c2cccc(O)c2)O3)s1 (centres unmarked) [compound 174, hydrochloride]	800 nM
O=C(CN1CC[C@@H](O)C1)NCc1cnc(Oc2ccc3c(c2)CCC(c2ccccc2)O3)s1 (some centres unmarked) [compound 175]	400 nM
Cc1ccccc1C1CCc2cc(Oc3ncc(C(=O)NCCc4c(C)noc4C)s3)ccc2O1 (centres unmarked) [compound 176]	400 nM
Cc1nc(Oc2ccc3c(c2)CC[C@@H](c2ccccc2)O3)sc1C(=O)NCc1ccnc(Cl)c1 [compound 178, 4-Methyl-2-((S)-2-phenyl-chroman-6-yloxy)-thiazole-5-carboxylic acid (2-chloro-pyridin-4-ylmethyl)-amide hydrochloride]	400 nM
Cc1ccccc1C1CCc2cc(Oc3ncc(C(=O)NCc4ccncc4)s3)ccc2O1 (centres unmarked) [compound 179]	500 nM

Further lines, results first:

IC50	Compound
300 nM	c1ccc(C2CCc3cc(Oc4ncc(CNCC5CC5)s4)ccc3O2)cc1 (centres unmarked) [compound 120]
300 nM	Cn1nccc1S(=O)(=O)NCc1cnc(Oc2ccc3c(c2)CCC(c2ccccc2)O3)s1 (centres unmarked) [compound 128]
300 nM	CCn1cc(S(=O)(=O)NCc2cnc(Oc3ccc4c(c3)CCC(c3ccccc3)O4)s2)cn1 (centres unmarked) [compound 132]
400 nM	Cc1c(S(=O)(=O)NCc2cnc(Oc3ccc4c(c3)CCC(c3ccccc3)O4)s2)cnn1C (centres unmarked) [compound 133]
400 nM	Cc1nn(C)cc1CNCc1cnc(Oc2ccc3c(c2)CCC(c2ccccc2)O3)s1 (centres unmarked) [compound 137]
300 nM	Cc1c(CNCc2cnc(Oc3ccc4c(c3)CCC(c3ccccc3)O4)s2)cnn1C (centres unmarked) [compound 138]
200 nM	Cc1cc(CNCc2cnc(Oc3ccc4c(c3)CCC(c3ccccc3)O4)s2)no1 (centres unmarked) [compound 140]
400 nM	Cc1cc(CNCc2cnc(Oc3ccc4c(c3)CCC(c3ccccc3)O4)s2)n(C)n1 (centres unmarked) [compound 141]
300 nM	c1ccc(C2CCc3cc(Oc4ncc(CNCCCn5cccn5)s4)ccc3O2)cc1 (centres unmarked) [compound 142]
200 nM	Cn1nccc1CNCc1cnc(Oc2ccc3c(c2)CCC(c2ccccc2)O3)s1 (centres unmarked) [compound 146]
300 nM	Cc1cc(CNCc2cnc(Oc3ccc4c(c3)CCC(c3ccccc3)O4)s2)nn1C (centres unmarked) [compound 147]
400 nM	Cc1c(C(C)NCc2cnc(Oc3ccc4c(c3)CCC(c3ccccc3)O4)s2)cnn1C (centres unmarked) [compound 148]
300 nM	c1ccc(C2CCc3cc(Oc4ncc(CNCCn5cccn5)s4)ccc3O2)cc1 (centres unmarked) [compound 149]
400 nM	Cc1csc(CCNCc2cnc(Oc3ccc4c(c3)CCC(c3ccccc3)O4)s2)n1 (centres unmarked) [compound 151]
300 nM	Cc1noc(C)c1CNCc1cnc(Oc2ccc3c(c2)CCC(c2ccccc2)O3)s1 (centres unmarked) [compound 152]
300 nM	Oc1cc(CNCc2cnc(Oc3ccc4c(c3)CCC(c3ccccc3)O4)s2)ccn1 (centres unmarked) [compound 154]
400 nM	Nc1cc(CNCc2cnc(Oc3ccc4c(c3)CCC(c3ccccc3)O4)s2)ccn1 (centres unmarked) [compound 155]
400 nM	c1ccc(C2CCc3cc(Oc4ncc(CNCc5nnc6ccccn56)s4)ccc3O2)cc1 (centres unmarked) [compound 156]
200 nM	N#Cc1ccc(CNCc2cnc(Oc3ccc4c(c3)CCC(c3ccccc3)O4)s2)cn1 (centres unmarked) [compound 157]
100 nM	c1ccc(C2CCc3cc(Oc4ncc(CNCc5ccno5)s4)ccc3O2)cc1 (centres unmarked) [compound 159]
200 nM	Cc1cc(CNCc2cnc(Oc3ccc4c(c3)CCC(c3ccccc3)O4)s2)on1 (centres unmarked) [compound 160]
300 nM	c1ccc(C2CCc3cc(Oc4ncc(CNCc5ccncn5)s4)ccc3O2)cc1 (centres unmarked) [compound 161]
300 nM	Cc1nc(Oc2ccc3c(c2)CCC(c2ccccc2)O3)sc1C(=O)NCc1ccno1 (centres unmarked) [compound 166]
200 nM	Cc1nc(Oc2ccc3c(c2)CC[C@@H](c2ccccc2)O3)sc1C(=O)NCc1ccno1 [compound 168]
300 nM	Cc1nc(Oc2ccc3c(c2)CC[C@@H](c2ccccc2)O3)sc1C(=O)NCCc1ccncc1 [compound 169, hydrochloride]
300 nM	Cc1nc(Oc2ccc3c(c2)CCC(c2ccccc2)O3)sc1C(=O)NCCc1ccncc1 (centres unmarked) [compound 170, hydrochloride]
100 nM	O=C(NCc1ccno1)c1cnc(Oc2ccc3c(c2)CC[C@@H](c2ccccc2)O3)s1 [compound 171]
